How the values were obtained:
[1] = Percutaneous absorption of nitric oxide, in vitro Franz human skin finite dose model; type: in vitro ADME; details: delivered at a pressure of 1.2 atm as compared with normal pressure; Franz diffusion cell, human skin (FIG. 10)
Description: The percutaneous absorption of nitric oxide is evaluated using a Franz human skin finite dose model. The in vitro Franz human skin finite dose model has proven to be a valuable tool for the study of percutaneous absorption and the determination of the pharmacokinetics of topically applied drugs. The model uses human ex vivo cadaver or surgical skin mounted in a specially designed diffusion chamber allowing the skin to be maintained at a temperature and humidity that match typical in vivo conditions. A finite dose of a formulation is applied to the outer surface of the skin and drug absorption is measured by monitoring its rate of appearance in the reservoir solution bathing the inner surface of the skin. In this study, the applied dose is a controlled continuous exposure to a gas. Data defining total absorption, rate of absorption, as well as skin content can be accurately determined in this model. […]
A single center, open label study of nitric oxide formulations is performed. […] The rate and extent of penetration of nitric oxide, at normal pressure and at greater than 1 atm of pressure (e.g., 1.2×, 1.5×, 1.8×, 2.0×, 2.2×, etc.) for continuous exposure durations of 30 and 60 minutes is determined for the amount penetrating through the skin and into the different layers of the skin using a Franz Diffusion Cell. […]

[2] = mixture of 1000 ppm nitric oxide and 21% oxygen; cited from earlier work

SMILES: [N]=O [NO, nitric oxide]
- NO penetration in the epidermis and stratum corneum [1]: increased
- time for half of the nitric oxide to react to become nitric dioxide [2]: about 3.5 minutes

Reference: patent publication US9364388B2, “Methods of treatment with nitric oxide at pressures greater than one atmosphere” (Barry University, priority 2012, dated 2016)
